According to patent US6562978B1, “Cyclic amine compounds as CCR5 antagonists” (Takeda Chemical Industries, Ltd., priority 1999, dated 2003):
Counter-ions that a name gives are not always drawn.

These compounds were tested against T1, human CCR5 (Homo sapiens, UniProt P51681) (assay: CCR5 binding assay: inhibition of [125I]-RANTES binding to CHO/CCR5 cells). Conditions: 1.0 μM test compound, 100 pM [125I]-RANTES, room temperature 40 minutes, read-out: Inhibition Rate (%) at 1.0 μM.
T1 construct: expressed in transfected cells; whole cells in the well
T1 sequence (P51681 whole entry): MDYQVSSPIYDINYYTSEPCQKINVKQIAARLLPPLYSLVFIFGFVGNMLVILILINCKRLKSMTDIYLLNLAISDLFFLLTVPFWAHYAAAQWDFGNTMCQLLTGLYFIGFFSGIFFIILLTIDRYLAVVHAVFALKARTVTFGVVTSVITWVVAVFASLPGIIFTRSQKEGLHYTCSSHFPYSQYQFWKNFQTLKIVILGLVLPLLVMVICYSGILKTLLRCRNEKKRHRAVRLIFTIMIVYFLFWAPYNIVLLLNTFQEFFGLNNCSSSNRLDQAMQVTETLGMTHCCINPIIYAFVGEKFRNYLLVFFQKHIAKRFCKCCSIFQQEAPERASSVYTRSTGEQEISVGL
Procedure: (1) Cloning of Human CCR5 Chemokine Receptor
Cloning of CCR5 gene was carried out by PCR (polymerase chain reaction) from human spleen cDNA. With using 0.5 ng of spleen cDNA (Toyobo, QUICK-Clone cDNA) as template, PCR was performed in DNA Thermal Cycler 480 (Perkin-Elmer) (reaction conditions: 30 cycles of 95° C. for 1 minute, 60° C. for 1 minute, and 75° C. for 5 minutes) by adding primer set, 5′-[…]-3′ (25 pmol) and 5′-[…]-3′ (25 pmol), which were designed referring to nucleotide sequence of CCR5 gene reported by Samson et al. (Biochemistry, 35(11), 3362-3367 (1996)) and by using TaKaRa EX Taq (Takara Shuzo). The resultant PCR product was subjected to agarose gel electrophoresis to collect about 1.0 kb DNA fragment, which was subjected to Original TA Cloning Kit (Funakoshi) to carry out cloning of CCR5 gene.
(2) Preparation of Plasmid for Expression of Human […]
The plasmid obtained in the above (1) was digested with restriction enzymes XbaI (Takara Shuzo) and BamHI (Takara Shuzo) and subjected to agarose gel electrophoresis to collect about 1.0 kb DNA fragment. The DNA fragment was mixed with plasmid pcDNA3.1 (Funakoshi) for expression in animal cells, said plasmid being digested with XbaI and BamHI, and they were ligated with DNA Ligation Kit Ver.2 (Takara Shuzo). The resulting plasmid was subjected to transformation of competent cell of E. coli JM109 (Takara Shuzo) to obtain plasmid pCKR5.
(3) Introduction of Plasmid for Expression of Human CCR5 into CHO-K1 Cell and Expression of said Plasmid in CHO-KY Cell
CHO-K1 cells were grown in 750 ml of tissue culture flask (Becton Dickinson) using Ham's F12 medium (Nihon Pharmaceutical) containing 10% fetal calf serum (Life Tech Oriental) and took off with 0.5 g/L trypsin-0.2 g/L EDTA (Life Tech Oriental). The cells were washed with PBS (Life Tech Oriental), centrifuged (1000 rpm, 5 minutes), and suspended in PBS. With using Gene Pulser (Bio-Rad Laboratories), DNA was introduced into the cells under the conditions shown below. That is, to the cuvette of 0.4 cm gap were added 8×10^6 cells and 10 μg of plasmid pCKR5 for expression of human CCR5, and electroporation was carried out under 0.25 kV of voltage and […] of capacitance. The cells were transferred into Ham's F12 medium (Nihon Pharmaceutical) containing 10% fetal calf serum, and cultivated for 24 hours. The cells were again took off and centrifuged, and suspended in Ham's F12 medium (Nihon Pharmaceutical) containing 10% fetal calf serum and 500 μg/ml of geneticin (Life Tech Oriental). The suspension was diluted to give 10^4 cells/ml of the suspension, which was inoculated on 96 well plate (Becton Dickinson) to give geneticin resistant cells. The resulting geneticin resistant cells were cultivated in 96 well plate (Becton Dickinson), and cells expressing CCR5 were selected from the geneticin resistant cells. That is, in assay buffer (Ham's F12 medium containing 0.5% BSA and 20 mM HEPES (Wako Pure Chemical, pH7.2) to which was added 200 pM of [^125I]-RANTES (Amersham) as ligand, binding reaction was carried out at room temperature for 40 minutes, and the buffer was washed with cooled PBS. To the buffer was added 50 μl/well of 1M NaOH, and the mixture was stirred. Radioactivity was determined with γ-counter to select CHO/CCR5 cells which specifically bind to the ligand.
(4) Evaluation of Test Compounds Based on CCR5 Antagonistic Activity
The CHO/CCR5 were inoculated on 96 well microplate (5×10^4 cells/well) and cultivated for 24 hours. The medium was removed by means of suction, and to each well was added assay buffer containing Test Compound (191) and then 100 pM of [^125I]-RANTES (Amersham) as ligand. Binding assay was carried out at room temperature for 40 minutes, and assay buffer was removed by means of suction. Each well was washed twice with cooled PBS, and 200 μl of Microscint-20 (Packard Instrument, Inc.) was added to each well.
In the case of `CC(=O)N1CCC(C(=O)N(CCCN2CCC(Cc3ccccc3)CC2)Cc2ccc(Cl)cc2)CC1` [Example 40, 1-Acetyl-N-[3-(4-benzyl-1-piperidinyl)propyl]-N-(4-chlorobenzyl)-4-piperidinecarboxamide Trifluoroacetate], the inhibition at 1 µM is reported as 98%. `CC(=O)N1CCC(C(=O)N(CCCN2CCC(Cc3ccc(S(N)(=O)=O)cc3)CC2)c2ccc(Cl)c(Cl)c2)CC1` [Example 243, 1-Acetyl-N-(3-{4-[4-(aminosulfonyl)benzyl]-1-piperidinyl}propyl)-N-(3,4-dichlorophenyl)-4-piperidinecarboxamide] gave an inhibition at 1 µM of 99%. In the case of `CS(=O)(=O)N1CCC(C(=O)N(CCCN2CCC(Cn3cnc4ccccc43)CC2)c2ccc(Cl)c(Cl)c2)CC1` [Example 261, N-{3-[4-(1H-Benzimidazol-1-ylmethyl)-1-piperidinyl]propyl}-N-(3,4-dichlorophenyl)-1-methylsulfonyl-4-piperidinecarboxamide], the inhibition at 1 µM is reported as 98%. With `Cc1cc(NS(=O)(=O)c2ccc(CC3CCN(CCCN(C(=O)C4CCN(S(C)(=O)=O)CC4)c4ccc(Cl)c(Cl)c4)CC3)cc2)no1` [Example 372, N-(3,4-Dichlorophenyl)-N-{3-[4-(4-{[(5-methyl-3-isoxazolyl)amino]sulfonyl}benzyl)-1-piperidinyl]propyl}-1-(methylsulfonyl)-4-piperidinecarboxamide] the inhibition at 1 µM was 97%. `CCS(=O)(=O)c1ccc(CC2CCN(CCCN(C(=O)C3CCN(S(C)(=O)=O)CC3)c3cccc(Cl)c3)CC2)cc1` [Example 413, N-(3-Chlorophenyl)-N-(3-{4-[4-(ethylsulfonyl)benzyl]-1-piperidinyl}propyl)-1-(methylsulfonyl)-4-piperidinecarboxamide Hydrochloride] gave an inhibition at 1 µM of 99%. With `CC(=O)N1CCC(C(=O)N(CCCN2CCC(Cc3ccccc3)CC2)c2ccccc2)CC1` [Example 3, 1-Acetyl-N-[3-(4-benzyl-1-piperidinyl)propyl]-N-phenyl-4-piperidinecarboxamide] the inhibition at 1 µM was 98%. `CS(=O)(=O)N1CCC(C(=O)N(CCCN2CCC(Cc3ccc(N4CCOCC4)cc3)CC2)c2ccc(Cl)c(Cl)c2)CC1` [Example 292, N-(3,4-Dichlorophenyl)-1-(methylsulfonyl)-N-{3-[4-(4-morpholinobenzyl)-1-piperidinyl]propyl}-4-piperidinecarboxamide] gave an inhibition at 1 µM of 97%. `CC(=O)N1CCC(C(=O)N(CCCN2CCC(Cc3ccc(NS(C)(=O)=O)cc3)CC2)c2ccc(Cl)c(Cl)c2)CC1` [Example 304, 1-Acetyl-N-(3,4-dichlorophenyl)-N-[3-(4-{4-[(methylsulfonyl)amino]benzyl}-1-piperidinyl)propyl]-4-piperidinecarboxamide] was tested, and the inhibition at 1 µM was 99%. For `CS(=O)(=O)N1CCC(NC(=O)N(CCCN2CCC(Cc3ccccc3)CC2)c2ccccc2)CC1` [Example 15, N-[3-(4-Benzyl-1-piperidinyl)propyl]-N′-[1-(methylsulfonyl)-4-piperidinyl]-N-phenylurea], the inhibition at 1 µM was 97%. `CS(=O)(=O)c1ccc(CC2CCN(CCCN(C(=O)C3CCN(S(C)(=O)=O)CC3)c3ccc(Cl)c(Cl)c3)CC2)cc1` [Example 420, N-(3,4-Dichlorophenyl)-1-(methylsulfonyl)-N-(3-{4-[4-(methylsulfonyl)benzyl]-1-piperidinyl}propyl)-4-piperidinecarboxamide Hydrochloride] gave an inhibition at 1 µM of 98%. `CCN(C1CCN(CCCN(C(=O)C2CCN(S(C)(=O)=O)CC2)c2ccc(Cl)c(Cl)c2)CC1)S(=O)(=O)c1ccc(S(C)(=O)=O)cc1` [Example 341, N-(3,4-Dichlorophenyl)-N-{3-[4-(ethyl{[4-(methylsulfonyl)phenyl]sulfonyl}amino)-1-piperidinyl]propyl}-1-(methylsulfonyl)-4-piperidinecarboxamide] was tested, and the inhibition at 1 µM was 98%. With `CC(=O)N1CCC(C(=O)N(CCCN2CCN(Cc3ccc4c(c3)OCO4)CC2)c2cccc(Cl)c2)CC1` [Example 57, 1-Acetyl-N-(3-chlorophenyl)-N-[3-(4-piperonyl-1-piperazinyl)propyl]-4-piperidinecarboxamide Trifluoroacetate] the inhibition at 1 µM was 96%.
